Experimental data from PMC7394005, “Assessing the Selectivity of FXR, LXRs, CAR, and RORγ Pharmaceutical Ligands With Reporter Cell Lines” (Frontiers in Pharmacology, 2020).
Read-outs that look alike come from different tables or passages of the source.

What was measured:
Type in all cases: cell-based
human CAR (+ APYLT) = target: T1, human CAR (+ APYLT) (Homo sapiens, UniProt Q14994, INS270APYLT); test: HG5LN GAL4-CAR (+APYLT) reporter cell line, agonist mode; settings: for EC50: HG5LN CAR + APYLT cells, tested alone, NE = No effect
T1 construct: CAR (M76-S348); expressed in transfected cells; host or cells: HG5LN (HeLa cells carrying the (GAL4RE)5-βGlob-Luc-SVNeo reporter)
T1 sequence (Q14994 47-324 isoform Q14994-6): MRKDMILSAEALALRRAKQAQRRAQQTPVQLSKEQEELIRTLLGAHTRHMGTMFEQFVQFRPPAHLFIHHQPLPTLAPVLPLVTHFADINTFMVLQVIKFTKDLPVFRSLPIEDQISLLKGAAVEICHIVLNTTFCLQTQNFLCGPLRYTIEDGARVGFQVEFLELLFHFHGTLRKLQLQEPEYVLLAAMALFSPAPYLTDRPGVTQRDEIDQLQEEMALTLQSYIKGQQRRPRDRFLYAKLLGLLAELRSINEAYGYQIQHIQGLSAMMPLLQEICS
Text: (§1) To construct GAL4-NR chimeras, individual LBDs of human FXR (R193-Q486), LXRα (A187-E447), LXRβ (G199-E461), CAR (M76-S348), and RORγ (S97-K518) were amplified by PCR with primers containing XhoI and SacI restriction sites (FXR), XhoI and BamHI (LXRs, CAR, RORγ) and inserted in pSG5-GAL4(DBD)-puromycin plasmid. To construct GAL4-CAR (+ APYLT) (M76-S353), the five amino acids APYLT were inserted by overlap extension PCR between amino acids P270 and D271 of CAR.
(§2) To characterize the specificity of chemicals for human FXR, LXRα, LXRβ, CAR and RORγ, we established in a similar manner HG5LN FXR, LXRα, LXRβ, CAR WT, CAR (APYLT) and RORγ reporter cell lines. […] These cells were stably transfected by pSG5-GAL4 (DBD)-NRs (LBD)-puromycin plasmid and selected in presence of 0.5 µg/ml puromycin. […] From each HG5LN NR cells, 5 to 10 clones were chosen for their ligand inducibility of luciferase expression. […] The most inducible clones were expanded and rechecked for inducibility and aliquots were frozen at different passages. One clone per receptor was maintained in culture and used for ligand screening. HG5LN cells were cultured in Dulbecco’s modified Eagle’s medium (DMEM): Nutrient Mixture F-12 (DMEM/F-12) containing phenol red and 1 g/l glucose and supplemented with 5% fetal bovine serum, 100 units/ml of penicillin, 100 µg/ml of streptomycin and 1 mg/ml geneticin, in 5% CO2 humidified atmosphere at 37°C. Stably transfected cell lines derived from HG5LN cells were cultured in the same culture medium supplemented with 0.5 µg/ml puromycin.
(§3) Individual reporter cell lines were seeded at a density of 40,000 cells per well in 96-well white opaque tissue culture plates (Greiner CellStar) in Dulbecco’s Modified Eagle Medium: Nutrient Mixture F-12 (DMEM/F-12) without phenol red and 1 g/l glucose and supplemented with 5% stripped fetal bovine serum, 100 units/ml of penicillin, 100 µg/ml of streptomycin (test medium). Chemicals to be tested were added 24h later, and cells were incubated at 37°C for 16h. Experiments were performed in quadruplicates. At the end of the incubation period, culture medium was replaced with test medium containing 0.3 mM luciferin solution. Luciferase activity was measured for 2s in intact living cells after 10 min stabilization using a Micro Beta Wallac luminometer (PerkinElmer). EC50 values were calculated using GraphPad Prism (GraphPad Software Inc).
(§4) Chemicals tested for agonism on FXR, LXRs, CAR (+ APYLT), PXR, and antagonism on CAR and RORγ were tested alone, without addition of any other ligand.
(§5) In the transactivation assay, each compound was tested at various concentrations in three independent experiments at least. For each experiment, tests were performed in quadruplicates for each concentration, and data are expressed by means values with standard deviations. Individual agonist dose–response curves, in the absence and presence of antagonist, were fitted using the sigmoid dose-response function of a graphics and statistics software program (GraphPad Prism, version 5.0). EC50 (effective concentration for half-maximal luciferase activity) and IC50 (half-maximal inhibitory concentration) values were calculated from equations used to fit the data in this graphic software. Transactivation data are presented as EC50 and IC50 values for each compound tested. To analyze significances, we compared individual compound treatments with controls using one-way analysis of variance (ANOVA) with the help of GraphPad Prism software.

human LXRβ = target: T2, human LXRβ (Homo sapiens, UniProt P55055); test: HG5LN GAL4-LXRβ reporter cell line, antagonist mode in presence of T0901317; settings: for LXRβ (T0901317 100 nM) % min act: in presence of T0901317 100 nM (80% of maximal activity), at 10^-5 M (10^-6 M *, 3 10^-6 M **)
T2 construct: LXRβ (G199-E461); expressed in transfected cells; host or cells: HG5LN (HeLa cells carrying the (GAL4RE)5-βGlob-Luc-SVNeo reporter)
T2 sequence (P55055 198-460 limits assumed): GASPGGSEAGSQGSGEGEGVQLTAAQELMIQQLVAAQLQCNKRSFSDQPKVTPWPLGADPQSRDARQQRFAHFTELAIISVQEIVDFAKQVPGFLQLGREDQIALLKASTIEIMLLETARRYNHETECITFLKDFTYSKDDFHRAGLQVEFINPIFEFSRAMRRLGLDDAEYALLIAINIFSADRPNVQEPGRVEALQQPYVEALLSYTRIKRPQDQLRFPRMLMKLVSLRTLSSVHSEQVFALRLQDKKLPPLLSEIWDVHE
Text: as §1, §2, §3, §4, §5

human LXRα = target: T3, human LXRα (Homo sapiens, UniProt Q13133); test: HG5LN GAL4-LXRα reporter cell line, agonist mode; settings: for LXRα % max act: maximal luciferase activity at 10^-5 M (10^-6 M for * and 3 10^-6 M for ** compounds), 100% = 1 µM T0901317, DMSO 8 ± 1
T3 construct: LXRα (A187-E447); expressed in transfected cells; host or cells: HG5LN (HeLa cells carrying the (GAL4RE)5-βGlob-Luc-SVNeo reporter)
T3 sequence (Q13133 187-447): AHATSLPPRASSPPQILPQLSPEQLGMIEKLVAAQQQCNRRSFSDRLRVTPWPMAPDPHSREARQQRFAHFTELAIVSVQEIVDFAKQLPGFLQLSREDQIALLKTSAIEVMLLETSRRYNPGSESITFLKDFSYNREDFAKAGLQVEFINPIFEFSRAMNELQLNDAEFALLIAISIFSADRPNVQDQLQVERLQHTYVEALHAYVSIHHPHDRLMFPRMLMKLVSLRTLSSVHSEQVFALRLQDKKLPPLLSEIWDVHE
Text: as §1, §2, §3, §4, §5

[1] = HG5LN GAL4-LXRα cells, tested alone, NE = No effect, read-out: LXRα EC50
[2] = read-out: LXRβ (T0901317 100 nM) IC50, in presence of T0901317 100 nM, NE = No effect

Molecule | EC50 (human CAR (+ APYLT)) [µM] | EC50 (human LXRα; [1]) [µM] | IC50 (human LXRβ; [2]) [µM] | also measured
CCOC(=O)c1ccc(CN(Cc2ccc(-c3cccc(S(C)(=O)=O)c3)cc2)S(=O)(=O)c2c(C)cc(C)cc2C)o1 [SR9238] | > 10 |  |  | IC50 (human LXRβ): 0.005 ± 0.001 µM; LXR β-subtype specificity (fold, over α subtype) (human LXRβ; from IC50 values on LXRα and LXRβ): 5 fold; LXRβ (T0901317 100 nM) % min act (human LXRβ; NE = No effect): 1%
CCOC(=O)Nc1ccc2c(c1)N(C(=O)CN(CC)CC)c1ccccc1CC2 [CINPA1] | > 10 | > 10 | > 10 | 
O=C(Nc1ccc(C(O)(C(F)(F)F)C(F)(F)F)cc1)c1ccccc1Cl [SR0987] | > 10 | > 10 | > 10 | 
SPA70 | > 10 | > 10 | > 10 | 
Clc1ccccc1C(c1ccccc1)(c1ccccc1)n1ccnc1 [Clotrimazole, clotrimazole] |  | > 10 | > 10 | Emax at 10 µM (human CAR (+ APYLT); HG5LN, read-out: CAR (APYLT) % max act): 23%
Fc1ccc(-c2c3cccc(C(F)(F)F)c3nn2Cc2ccc(F)cc2Cl)cc1 [WAY252623] | > 10 |  |  | EC50 (human LXRα): 0.595 ± 0.068 µM; LXRα % max act (human LXRα; NE = No effect): 67%
CC(C)(C)c1nc(-c2cccc(NS(=O)(=O)c3c(F)cccc3F)c2F)c(-c2ccnc(N)n2)s1 [Dabrafenib] | > 10 | > 10 | > 10 | 
Cc1cc(C)c(S(=O)(=O)N(Cc2ccc(-c3cccc(S(C)(=O)=O)c3)cc2)Cc2ccc(C(F)(F)F)o2)c(C)c1 [GSK2033] | > 10 |  |  | IC50 (human LXRβ): 0.01 ± 0.003 µM; LXRβ (T0901317 100 nM) % min act (human LXRβ; NE = No effect): 2%
O=C(Nc1ccc(C(O)(C(F)(F)F)C(F)(F)F)cc1)c1ccc(C(F)(F)F)cc1 [SR1078] | > 10 | > 10 | > 10 | 
COC(=O)/C=C/c1cccc(N(Cc2ccc(-c3ccc(N(C)C)cc3)cc2)C(=O)C2CCCCC2)c1 [Feraxamine] | > 10 | > 10 | > 10 | 
Clc1ccc(-c2nc3sccn3c2/C=N/OCc2ccc(Cl)c(Cl)c2)cc1 [CITCO] |  | > 10 | > 10 | 

More lines, main results first:

EC50 (human CAR (+ APYLT)) [µM] | EC50 (human LXRα; [1]) [µM] | IC50 (human LXRβ; [2]) [µM] | Molecule | also measured
> 10 | > 10 | > 10 | CC(C)c1onc(-c2c(Cl)cccc2Cl)c1COc1ccc(/C=C/c2cccc(C(=O)O)c2)c(Cl)c1 [GW4064] | 
> 10 | > 10 | > 10 | COc1cccc(Cn2cc(C(=O)Nc3ccc(C)c(S(=O)(=O)N4CCOCC4)c3)c(-c3ccc(C)cc3)n2)c1 [DY268] | 
> 10 | 0.176 ± 0.048 |  | O=C(O)Cc1cccc(OCCCN(Cc2cccc(C(F)(F)F)c2Cl)CC(c2ccccc2)c2ccccc2)c1 [GW3965] | LXRα % max act (human LXRα; NE = No effect): 98%
> 10 |  |  | Cc1cc(C)c(S(=O)(=O)N(CCc2cccc(Br)c2)Cc2ccc(-c3cccc(S(C)(=O)=O)c3)cc2)c(C)c1 [SR9243] | IC50 (human LXRβ): 0.059 ± 0.013 µM; LXRβ (T0901317 100 nM) % min act (human LXRβ; NE = No effect): 2%
> 10 | > 10 | > 10 | CC(=O)Nc1nc(C)c(S(=O)(=O)Nc2ccc(C(O)(C(F)(F)F)C(F)(F)F)cc2)s1 [SR1001] | 
> 10 | > 10 | > 10 | Cc1oc2ccccc2c1CNC(=O)NCc1cccs1 [S07662] | 
> 10 | > 10 | > 10 | CCOP(=O)(OCC)C(=Cc1cc(C(C)(C)C)c(O)c(C(C)(C)C)c1)P(=O)(OCC)OCC [SR12813] | 
